Literature values in patent US20130150444A1, “MODIFIED RELEASE COMPOSITIONS OF MAGNESIUM VALPROATE” (CADILA HEALTHCARE LIMITED, priority 2011, published 2013).

Conditions: in comparison with sodium valproate or valproic acid

## magnesium 2-propylvalerate [magnesium valproate]
  absorption rate: slower and more regular
